Data published in PMC12036875, “Mitochondria-targeting natural product rhein conjugated with dichloroacetate as the dual inhibitor of glycolysis and oxidative phosphorylation to off energize cancer cells and induce ROS storm” (Theranostics, 2025).

Experiments:
4T1 cells [1] = assay: Cell apoptosis assay (Annexin V-Alexa Fluor 647/PI flow cytometry); assay type: cell-based, Mouse; details: 6.25 μM, 24 h
Experimental: Correspondingly, the fall of intracellular ATP amount and the release of Cyt C directly drove cells into apoptosis. Flow cytometry apoptosis assay was conducted on the 4T1 cells after culture with different drugs at 6.25 μM for 24 h. The treated cells were stained with Annexin V-Alexa Flour 647 and PI. […] Since the antitumor effect could only be achieved when DCA was used in high dose, it is in agreement with reported literature. Similar to rhein group, the apoptosis rate in R + D group increased to approximately 12%.
Annexin V/PI staining was used to analyze the apoptosis of cancer cells. 4T1 cells were seeded into 6-well plates at a density of 10 × 10^4 cells per well. The cells were permitted to resume exponential growth for 24 h and treated with various drugs. After another 24 h incubation, the supernatant was collected in 1.5 mL tubes. The cells were treated with 100 μL of 0.25% Trypsin-EDTA for 2 min, subsequently 300 μL fresh medium were added which was combined with the corresponding supernatant. The cells were obtained following centrifugation at 434 G for 5 min and washed twice with PBS, and then resuspended in 500 μL of binding buffer (1 ×). The cells were stained with Annexin V/Alexa Fluor 647 and PI (20 μg/mL) for 5 min at room temperature in the dark. The fluorescence signal was immediately detected by flow cytometry and the data were analyzed by FlowJo software.

[2] = test system: tumor-associated macrophages in 4T1 tumors; assay: Tumor-associated macrophages detection (flow cytometry); assay type: in vivo, Balb/c mice; details: primary 4T1 tumors; for M1 macrophages (CD80+ in CD11b+ cells) / M2 macrophages (CD206+ in CD11b+ cells): 20 mg/kg oral, 24 days; for M1 macrophages (CD80+ in CD11b+ cells): vehicle 5.8%; for M2 macrophages (CD206+ in CD11b+ cells): vehicle 36.5%
Experimental: To further investigate the immunomodulatory effects of the Rhein-DCA conjugate, we analyzed TAMs by flow cytometry, where CD11b and CD80 antibodies were labeled for M1-phenotype macrophages (Figure 7D), CD11b and CD206 antibodies were labeled for M2-phenotype macrophages (Figure 7E).
The macrophages within the tumor microenvironment of tumor tissues were further analyzed. Tumor tissues were minced into small pieces and then digested in a solution containing 1 mg/mL of collagenase IV, 0.1 mg/mL of hyaluronidase and 0.1 mg/mL of DNAase I at 37 °C for 1.5 h. The supernatants containing single cells were collected by filtering through 200 mesh filters. Cells were obtained by centrifugation and further blocked with anti-CD16/32 (1 μg/100 μL) for 10 min in an ice bath. Thereafter, FITC anti-mouse CD11b (1 μg/100 μL) and PE anti-mouse CD80 (1 μg/100 μL) antibodies were employed to stain the cells in an ice bath for 20 min. After that, the cells were collected and fixed with 4%-paraformaldehyde at room temperature for 20 min, and then stained with APC anti-mouse CD206 antibody (0.5 μg/100 μL, in 1 × Fix/Perm buffer) at room temperature in the dark for 20 min. Finally, cells were analyzed with flow cytometry after being resuspended in 1 × Perm/Wash buffer.

4T1 cells [3] = assay: Intracellular ATP detection; assay type: cell-based, Mouse; details: 6.25 μM, vs control
Experimental: Rhein-DCA conjugate achieved synergetic fatal energy depletion in tumor cells.
The intracellular ATP content was measured with PhosphoWorks™ Colorimetric ATP Assay Kit. Specifically, 4T1 cells and 293T cells were seeded in 12-well plates at a density of 2 × 10^5 cells per well and further cultured for 24 h at 37 °C in an atmosphere of 95% air and 5% CO2. For the control group, the culture medium was replaced with fresh medium. For the rhein, DCA, R + D, and Rhein-DCA groups, the medium was replaced with fresh medium containing the indicated drugs at a concentration of 6.25 μM. It should be noted that in the Rhein-DCA + CsA group, the cells were pretreated with CsA (2.5 μM) for 1 h at 37 °C before being cultured with Rhein-DCA. The cells were collected and suspended in 80 μL triton-X-100 (1% in PBS) to obtain cell lysates by twice freeze-thaw. Then the supernatant was collected after centrifugation at 9391 G for 10 min for subsequent analysis. Finally, 50 μL of supernatant was separately mixed evenly with 50 μL ATP working solution and the mixture was incubated for 30 min at room temperature. The absorbance at 570 nm was monitored with microplate reader.

[4] = test system: Cyt C protein in 4T1 cells; assay: Western blot of Cyt C; assay type: cell-based, Mouse; details: 6.25 μM, 24 h
Experimental: The opening of mPTP in mitochondria often leads to the release of pro-apoptotic factor such as cytochrome C (Cyt C), thereby inducing apoptosis. Western blot was applied to measure the level of Cyt C in 4T1 cells after treatment with different drugs. The ratio of the integrated density value of target Cyt C protein to the internal parameter β-actin protein was also analyzed (Figure 4B). […] The released Cyt C in the rhein and R + D groups was 4.4- and 5.0-fold than that of the control group, respectively, clarifying that rhein component could boost the release of Cyt C in 4T1 cells.
4T1 cells were seeded in 6-well plates at a density of 20 × 10^4 cells per well and cultured for 24 h. Then the cells were treated with rhein, DCA, R + D and Rhein-DCA conjugate, each at a concentration of 6.25 μM for 24 h. Cells were washed twice with PBS and lysed by RIPA total protein extraction solution containing multiple protease inhibitors for 30 min while being maintained on ice. The lysate was centrifuged at 9391 G for 10 min at 4 °C to obtain the total protein solution. The concentrations of total protein were determined with BCA Protein Assay Kit. The protein was further denatured with 5 × protein loading buffer at 100 °C for 15 min. Sodium dodecyl sulfate polyacrylamide gel electrophoresis was conducted to separate the protein and transferred it to PVDF membranes. The PVDF membranes were blocked with 5% skim milk for 30 min at room temperature and incubated with indicated primary antibodies: Anti-Cytochrome C Rabbit pAb (1:1000); Anti-β-actin Rabbit pAb (1:1000); or Anti-PDHA1 Rabbit mAb (phosphoS^293) (1:1000) overnight at 4 °C. The membranes were incubated with HRP conjugated Goat Anti-Rabbit IgG (H+L) (1:5000), respectively, for 30 min at room temperature and then analyzed by chemiluminescence (Clinx,6100).

SMILES	apoptosis in comparison with control group, in words (4T1 cells [1])	M1 macrophages (CD80+ in CD11b+ cells) [2]	M2 macrophages (CD206+ in CD11b+ cells) [2]	intracellular ATP amount (4T1 cells [3])	released Cyt C, in words [4]	released Cyt C relative to control group (Cyt C/β-actin) [4]	apoptosis rate (4T1 cells [1])	M1 macrophages increase vs vehicle [2]	M2 macrophages reduction vs vehicle [2]
O=C(O)C(Cl)Cl [DCA, Dichloroacetate]	no obvious changes	7.7%	13.6%	slight increase	could almost be disregarded	–	–	–	–
O=C(O)c1cc(O)c2c(c1)C(=O)c1cccc(O)c1C2=O [Rhein, 4,5-dihydroxyanthraquinone-2-carboxylic acid]	–	6.0%	16.6%	decrease	–	4.4 fold	–	–	–
O=C(OCCOC(=O)C(Cl)Cl)c1cc(O)c2c(c1)C(=O)c1cccc(O)c1C2=O [Rhein-DCA]	–	10.3%	3.9%	significant decrease	more Cyt C than rhein and R + D groups	–	37.4%	1.8 fold	9.4 fold
